Test [1] deals with LNCaP. The test is described as follows: Antiproliferative activity against AR-positive human LNCAP cells assessed as cell viability at 10 uM measured after 72 hrs by resazurin dye based fluorescence assay relative to control. The format is functional. Particulars: read-out: Activity. On the technique in general: The colour change of resazurin is a common sign of viable cells or microbes.

In test [2] the test system is PC-3. Kind of test: Antiproliferative activity against AR-negative human PC3 cells assessed as cell viability at 10 uM measured after 72 hrs by resazurin dye based fluorescence assay relative to control. The format is functional. Particulars: PC-3, 72 h, read-out: Activity.
Test [3] relates to CWR22R. The test is described as follows: Induction of apoptosis in R1881-activated AR-positive human 22Rv1 cells harboring ARE14 construct assessed as cleaved PARP level at 5 to 20 uM after 24 hrs by immunoblot analysis. The class given is functional, cell-based.
Test [4] relates to CWR22R. The test is described as follows: Antiproliferative activity against AR-positive human 22Rv1 cells harboring ARE14 construct assessed as cell viability at 10 uM measured after 72 hrs by resazurin dye based fluorescence assay relative to control. The format is functional. Particulars: 22Rv1, 72 h, read-out: Activity.
Test [5] deals with LAPC4. Kind of test: Antiproliferative activity against AR-positive human LAPC4 cells assessed as cell viability at 10 uM measured after 72 hrs by resazurin dye based fluorescence assay relative to control. The format is functional. Particulars: LAPC4, 72 h, read-out: Activity.
Test [6] has as its system VCaP. The test is described as follows: Antiproliferative activity against AR-positive human VCaP cells assessed as cell viability at 10 uM measured after 72 hrs by resazurin dye based fluorescence assay relative to control. The format is functional. Particulars: read-out: Activity.
In test [7] the test system is VCaP. The test is described as follows: Induction of apoptosis in AR-positive human VCaP cells assessed as cleaved PARP level at 5 to 20 uM after 24 hrs by immunoblot analysis. The format is functional, cell-based. (In western blotting, separated proteins are transferred to a membrane and probed.)
Test [8] deals with PC-3. The test is described as follows: Antiproliferative activity against AR-negative human PC3 cells assessed as growth inhibition measured after 72 hrs by resazurin dye based fluorescence assay. The format is functional. The note with it: PC-3, 72 h.
In test [9] the target is T1, Androgen receptor (Homo sapiens) (UniProt P10275).
T1 sequence (whole entry): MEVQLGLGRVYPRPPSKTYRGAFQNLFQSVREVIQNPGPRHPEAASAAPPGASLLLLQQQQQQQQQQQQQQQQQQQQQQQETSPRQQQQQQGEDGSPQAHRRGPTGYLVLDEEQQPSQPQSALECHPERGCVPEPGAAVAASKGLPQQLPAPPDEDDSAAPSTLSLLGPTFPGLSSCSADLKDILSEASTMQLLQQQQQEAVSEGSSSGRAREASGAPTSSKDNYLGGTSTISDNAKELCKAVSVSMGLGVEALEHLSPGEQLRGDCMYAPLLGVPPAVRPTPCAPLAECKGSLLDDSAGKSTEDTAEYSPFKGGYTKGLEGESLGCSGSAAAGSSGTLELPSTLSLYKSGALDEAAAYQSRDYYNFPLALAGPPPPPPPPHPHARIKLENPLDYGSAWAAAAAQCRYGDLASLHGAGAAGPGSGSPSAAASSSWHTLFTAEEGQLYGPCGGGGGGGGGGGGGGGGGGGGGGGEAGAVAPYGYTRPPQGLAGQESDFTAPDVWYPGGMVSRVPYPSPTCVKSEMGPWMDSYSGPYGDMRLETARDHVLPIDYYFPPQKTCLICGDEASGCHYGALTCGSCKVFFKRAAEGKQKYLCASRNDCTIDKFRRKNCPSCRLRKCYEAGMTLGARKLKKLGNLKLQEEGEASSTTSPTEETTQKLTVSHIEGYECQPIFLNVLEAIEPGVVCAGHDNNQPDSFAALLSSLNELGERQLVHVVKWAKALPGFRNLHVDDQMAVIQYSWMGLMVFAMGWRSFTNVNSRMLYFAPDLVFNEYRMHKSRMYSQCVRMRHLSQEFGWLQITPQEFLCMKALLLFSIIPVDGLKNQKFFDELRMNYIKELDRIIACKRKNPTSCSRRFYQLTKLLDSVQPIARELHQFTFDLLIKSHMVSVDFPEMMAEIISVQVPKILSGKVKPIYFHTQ
The note with it: at 10 µM.
Description: Inhibition of R1881 induced-AR transcriptional activity in AR-positive human 22Rv1 cells harboring ARE14 construct at 10 uM after 24 hrs by luciferase assay

In test [10] the target is T1, Androgen receptor (Homo sapiens). Particulars: at 10 µM. This is another data set of the same source.
Description: Inhibition of AR transcriptional activity in AR-positive human 22Rv1 cells harboring ARE14 construct assessed as suppression of PSA expression at 10 uM after 24 hrs by immunoblot analysis
Test [11] relates to LNCaP. The test is described as follows: Antiproliferative activity against AR-positive human LNCAP cells assessed as growth inhibition measured after 72 hrs by resazurin dye based fluorescence assay. The format is functional.
Test [12] concerns LNCaP. Kind of test: Antiproliferative activity against AR-positive human LNCAP cells assessed as cell viability at 40 uM measured after 72 hrs by resazurin dye based fluorescence assay relative to control. The note with it: read-out: Activity. The class given is functional.
Test [13] concerns CWR22R. Kind of test: Effect on AR-V7 variant protein expression in AR-positive human 22Rv1 cells harboring ARE14 construct at 10 uM after 24 hrs by immunoblot analysis. The format is functional, cell-based.
In test [14] the target is T1, Androgen receptor (Homo sapiens). The note with it: at 10 µM. This is another data set of the same source.
Description: Inhibition of AR transcriptional activity in AR-positive human 22Rv1 cells harboring ARE14 construct assessed as suppression of NKX3.1 expression at 10 uM after 24 hrs by immunoblot analysis
The subject of test [15] is VCaP. Kind of test: Antiproliferative activity against AR-positive human VCaP cells assessed as cell viability at 40 uM measured after 72 hrs by resazurin dye based fluorescence assay relative to control. The note with it: read-out: Activity. The class given is functional.
In test [16] the test system is VCaP. Kind of test: Antiproliferative activity against AR-positive human VCaP cells assessed as growth inhibition measured after 72 hrs by resazurin dye based fluorescence assay. The class given is functional.
The subject of test [17] is CWR22R. The test is described as follows: Antiproliferative activity against AR-positive human 22Rv1 cells harboring ARE14 construct assessed as cell viability at 40 uM measured after 72 hrs by resazurin dye based fluorescence assay relative to control. The class given is functional. Particulars: 22Rv1, 72 h, read-out: Activity.
In test [18] the test system is PC-3. The test is described as follows: Antiproliferative activity against AR-negative human PC3 cells assessed as cell viability at 40 uM measured after 72 hrs by resazurin dye based fluorescence assay relative to control. The format is functional. The note with it: PC-3, 72 h, read-out: Activity.
Test [19] has as its system CWR22R. The test is described as follows: Antiproliferative activity against human AR-positive 22Rv1 cells harboring ARE14 construct assessed as growth inhibition measured after 72 hrs by resazurin dye based fluorescence assay. The format is functional. The note with it: 22Rv1, 72 h.
Test [20] deals with LAPC4. The test is described as follows: Antiproliferative activity against AR-positive human LAPC4 cells assessed as growth inhibition measured after 72 hrs by resazurin dye based fluorescence assay. Particulars: LAPC4, 72 h. The class given is functional.
In test [21] the test system is LAPC4. The test is described as follows: Antiproliferative activity against AR-positive human LAPC4 cells assessed as cell viability at 40 uM measured after 72 hrs by resazurin dye based fluorescence assay relative to control. The class given is functional. The note with it: LAPC4, 72 h, read-out: Activity.
The target in test [22] is T1, Androgen receptor (Homo sapiens). The test is described as follows: Inhibition of AR transcriptional activity in AR-positive human VCaP cells assessed as decrease in NKX3.1 protein expression at 20 uM upto 72 hrs by immunoblot analysis. The class given is cell-based.
The target is the same in test [23]. The test is described as follows: Inhibition of AR transcriptional activity in AR-positive human VCaP cells assessed as NKX3.1 protein expression at 5 to 20 uM after 24 hrs by immunoblot analysis. The format is cell-based.
For test [24] the target is unchanged. The test is described as follows: Inhibition of R1881 induced-AR transcriptional activity in AR-positive human 22Rv1 cells harboring ARE14 construct assessed as luciferase activity at 10 uM after 24 hrs by luciferase assay relative to control. Further details: scale not given: the % may be the effect or the level left.
Test [25] shares this target. Kind of test: Inhibition of AR transcriptional activity in AR-positive human VCaP cells assessed as decrease in PSA protein expression at 20 uM after 48 hrs by immunoblot analysis. The format is cell-based.
The target is the same in test [26]. The test is described as follows: Inhibition of R1881 induced-AR transcriptional activity in AR-positive human 22Rv1 cells harboring ARE14 construct after 24 hrs by luciferase assay.
The target is the same in test [27]. The test is described as follows: Inhibition of AR transcriptional activity in AR-positive human VCaP cells assessed as PSA protein expression at 5 to 20 uM after 24 hrs by immunoblot analysis. The class given is cell-based.
Test [28] has as its system CWR22R. The test is described as follows: Inhibition of colony formation in AR-positive human 22Rv1 cells harboring ARE14 construct at 1.25 to 20 uM incubated for 10 days by crystal violet staining. The format is functional, cell-based.

Active and inactive are the calls of the source. The rule behind the calls is not given here.

One may read the GI50 as the concentration giving 50% growth inhibition.

For the compound `C[C@]12CC[C@H](O)CC1=CC[C@@H]1[C@@H]2CC[C@]2(C)C(n3cnc4ccccc43)=CC[C@@H]12` [GALETERONE], the viability at 10 µM in the test with LNCaP [1] was 91.6%; in the test on PC-3 [2], above 100%; with CWR22R [4] it was above 100%; in the test on LAPC4 [5], 92.8%; in the test on VCaP [6] it was 72.9%. For the same compound, the outcome with CWR22R [3] and in the test on VCaP [7] was Active.
Regarding `C[C@@H](O)[C@@]12Cc3c(CO)c(CO)nn3C[C@@H]1C[C@H]1[C@@H]3CC=C4C[C@@H](O)CC[C@]4(C)[C@H]3CC[C@@]12C`, the concentration for 50% growth inhibition (GI50) in the test with PC-3 [8], in the test with LNCaP [11], in the test with VCaP [16], in the test on CWR22R [19] and in the test with LAPC4 [20] was above 40 µM throughout. The inhibition entry in [9] and in test [10] was “inactive” throughout. Also, the viability at 40 µM is 92.8% in the test on LNCaP [12]; 96.3% with VCaP [15]; 95.8% with CWR22R [17]; above 100% in the test with PC-3 [18]; 97.5% in the test with LAPC4 [21]. The result in the test on CWR22R [13] was inactive. For the same compound, in [14], the inhibition entry is “Active”.
On to `COC(=O)c1cnn2c1C[C@]1(C(C)=O)[C@@H](C[C@H]3[C@@H]4CCC5=CC(=O)CC[C@]5(C)[C@H]4CC[C@@]31C)C2`, for which the GI50 in the test on PC-3 [8], in the test with LNCaP [11], in the test on VCaP [16], with CWR22R [19] and in the test with LAPC4 [20] was above 40 µM in each case. For the same compound, the inhibition result (in test [10]; in [22]; in test [14]; in test [25]; with CWR22R [28]) was “Active” each time. Also, the outcome in the test with CWR22R [3] and in the test with VCaP [7] was Active. The viability at 40 µM is 77.3% in the test with LNCaP [12]; 85.1% in the test with VCaP [15]; 80.4% in the test with CWR22R [17]; 98.3% in the test on PC-3 [18]; 95.1% in the test with LAPC4 [21]. Moreover, the result in the test with CWR22R [13] was inactive. Besides, the inhibition result in test [23] and in test [27] was “inactive” throughout. In test [24], the Activity came to 40%. In addition, in test [26], the inhibition entry is “Dose-dependent effect”.

For the origin of these results see ChEMBL document CHEMBL4364252, “Tetrahydropyrazolo[1,5-a]pyridine-fused steroids and their in vitro biological evaluation in prostate cancer” (2019).
